# Source: paper PMC1199608 (Cancer Cell International, 2005)
# Entries after “also recorded” stand apart in the source; their conditions may differ. Like-named read-outs stand apart in the source and are kept apart here. No end group written: not given here.
# Columns and labels:
# Jurkat cells [1] = assay: Apoptosis and membrane integrity by flow cytometry (annexin V-FITC / PI); assay type: cell-based; details: 4 hr, 12.5 μM or 63 μM Pep27anal2, 12.5 μM mellitin, 100 μM etoposide
# Protocol: Annexin V binding was assessed by flow cytometry, and cell staining was evaluated using FITC-labeled annexin V (green fluorescence), and propidium iodide (PI) ([…]) simultaneously. This test was able to discriminate between intact cells (FITC-/PI-), apoptotic cells (FITC+/PI-) and necrotic cells (FITC+/PI+) (Vermes et al., 1995). Jurkat cells (10^5/ml) were exposed to etoposide (100 μM), mellitin (12.5 μM) and Pep27anal2 (12.5 μM and 62.5 μM) for 4 hr. Cells were washed with PBS, resuspended in 400 μl of binding buffer (10 mM Hepes/NaOH, pH 7.4, 140 mM NaCl, 2.5.mM CaCl2), and incubated with 10 μl of annexin V-FITC (MedSystems Diagnostics, GmbH, […]) for 10 min at room temperature. After incubation, cells were washed with binding buffer and exposed to 1 μg of PI in a final volume of 400 μl. FITC and PI fluorescences were determined using a flow cytometer (Becton Dickinson, Franklin Lakes, FL, USA)
# In the present study, Jurkat cells were treated with 100 μM of etoposide, 12.5 μM of mellitin or 12.5 μM or 63 μM of Pep27anal2 for 4 hr. Apoptosis and membrane integrity were then determined using annexin V and propidium iodide, respectively, as described in "Materials and methods". […] Dead cells appear first in the lower right quadrant (apoptosis), where death was due to the externalization of PS (detected with annexin V-FITC).
# Jurkat cells [2] = assay: Cytochrome c release from mitochondria to cytosol (Western blotting); assay type: cell-based; details: Jurkat cells (5 × 10^5/ml), 62.5 μM, 4 h
# Protocol: Cytochrome c immunoblotting was performed using a slight modification of a previously described method. Jurkat cells were collected by centrifugation at 200 g for 5 min at 4°C. The cells were then washed twice with ice-cold PBS, pH 7.4, and centrifuged at 200 g for 5 min. The cell pellet obtained was then resuspended in 600 μl of extraction buffer, containing 20 mM Hepes-KOH (pH 7.5), 10 mM KCl, 250 mM sucrose, 1 mM EGTA, 1 mM EDTA, 1.5 mM MgCl2, 1 mM dithiothreitol and 0.1 mM phenylmethylsulfonyl fluoride.
# After incubation for 30 min on ice, the cells were homogenized (20 strokes), spun at 14,000 g for 15 min, supernatants were separated from the mitochondrial fraction, and both were stored at -70°C, until required for gel electrophoresis. The mitosol fraction was obtained by adding 0.1% SDS. […]
# Cytochrome c is a well-characterized mitochondrial protein and is involved in cellular energy metabolism. […] After these incubations, cytochrome c in the cytosol fraction, obtained by 14,000 g centrifugation for 15 min, and in the mitosol, obtained by adding 0.1% SDS to the mitochondrial fraction, was determined by Western blotting.
# Jurkat cells [3] = assay: Apoptosis by electron microscopy; assay type: cell-based; details: 4-hr incubation, 62.5 μM Pep27anal2, 100 μM etoposide, 200–400 cells counted per group
# Protocol: Jurkat cells were harvested and immediately fixed in phosphate-buffered glutaraldehyde solution (pH 7.2) for 2 hrs and then fixed in 1% buffered osmium tetroxide for 2 hrs at 4°C. After processing through a graded series of ethanol and propylene oxide, the cells were embedded in Epon. A semi-thin (1 μm) section was cut and stained with toluidine blue for the ultrastructural examination. Ultra-thin (60–90 nm) sections were also prepared from the Epon block above using an ultramicrotome (LKB-V, Sweden), stained with uranyl acetate and lead citrate, and examined under a Hitachi H-7600 electron microscope (Hitachi, Kyoto, Japan). Apoptosis detection was done by taking photographs (×1,000) of the entire field of each ultra-thin sectioned sample. The degree of apoptosis (apoptosis index) was defined as the number of apoptotic cells expressed as a percentage of the total cell count.
# human erythrocytes = details: 4% human erythrocytes in PBS pH 7.0, 1 h at 37°C, absorbance 414 nm, 100% = 0.1% Triton-100
# Protocol: Peptide hemolytic activities were measured as described by, by determining hemoglobin release by 4% suspensions of fresh human erythrocytes at 414 nm. Briefly, human erythrocyte cells were centrifuged and washed three times with phosphate-buffered saline (PBS: 35 mM phosphate buffer/0.15 M NaCl, pH 7.0). […] of human red blood cells suspended 8% (v/v) in PBS were the inoculated into 96-well plates. […] of the peptide solution, Pep27 or its analogues, was then added to each well. The plates were incubated for 1 h at 37°C, and centrifuged at 150 g for 5 min. […] aliquots of the supernatant obtained were transferred to flat-bottom 96-microtiter plates. Hemolysis was determined by measuring absorbance at 414 nm with an ELISA plate reader (Molecular Devices Emax, Sunnyvale, CA, USA). Hemolysis rates of 0% or 100% were determined as the same way with PBS and 0.1% Triton-100, respectively. Hemolysis percent was calculated using the following equation: % hemolysis = [(Abs414nm in the peptide solution - Abs414nm in PBS)/(Abs414nm in 0.1% Triton-100 - Abs414nm in PBS)] × 100.
# [4] = tested on: HL-60 acute promyelocytic leukemia cell line; details: MTT assay, from semilogarithmic dose-response curves, at least in duplicate
# Protocol: (§1) OCI-AML-2 (AML-2) cell line was obtained from the Ontario Cancer Institute (Toronto, Canada), and Jurkart and HL-60 cell lines from the American Type Culture Collection (ATCC, USA). These three cell lines were cultured at 37°C in a 5% CO2 atmosphere using α-MEM medium (GibcoBRL, Gland Island, NY, USA) containing 10% heat-inactivated fetal bovine serum (FBS, Sigma, ST. Louis, MO, USA). MCF-7 and NIH/3T3 cell lines from ATCC and SNU-601 cell line from the Korean Cancer Cell Bank (Seoul, Korea) were cultured under the same conditions but using RPMI-1640 medium (GibcoBRL, Gland Island, NY, USA) containing 10% heat-inactivated FBS. Cells were maintained in suspension or as monolayer cultures, and subcultured.
# (§2) The in vitro cytotoxicity of the Pep27 analogues produced was measured by MTT [3-(4,5-dimethylthiazol-2-yl)-2,5-diphenyl tetrazolium bromide, Sigma, ST. Louis, USA] assay, as described by. IC50 values were determined directly from semilogarithmic dose-response curves. Experiments were carried out at least in duplicate.
# (§3) To evaluate the anticancer activities of the Pep27 analogues, different concentrations of these peptides were administered to various cancer cell lines, and cytotoxicities were then determined by MTT assay. In this study, we used both anchorage-dependent and independent cancer cell lines. These included AML-2 an acute myelogenous leukemia cell line, HL-60 an acute promyelocytic leukemia cell line, Jurkat a T cell leukemia cell line, SNU-601 a gastric cancer cell line and MCF-7 a breast cancer cell line.
# [5] = tested on: MCF-7 breast cancer cell line; details: MTT assay, from semilogarithmic dose-response curves, at least in duplicate
# Protocol: as §1, §2, §3
# [6] = tested on: SNU-601 gastric cancer cell line; details: MTT assay, from semilogarithmic dose-response curves, at least in duplicate
# Protocol: as §1, §2, §3
# [7] = tested on: Jurkat T cell leukemia cell line; details: MTT assay, from semilogarithmic dose-response curves, at least in duplicate
# Protocol: as §1, §2, §3
# [8] = tested on: AML-2 acute myelogenous leukemia cell line; details: MTT assay, from semilogarithmic dose-response curves, at least in duplicate
# Protocol: as §1, §2, §3
Compound,annexin V-FITC staining (apoptosis) and PI staining (membrane integrity) (Jurkat cells [1]),cytochrome c release from mitochondria into the cytosol (Jurkat cells [2]),apoptosis (apoptotic cells by electron microscopy) (Jurkat cells [3]),% Hemolysis (human erythrocytes; 0.19 μM peptide) [%],% Hemolysis (human erythrocytes; 0.39 μM peptide) [%],% Hemolysis (human erythrocytes; 0.78 μM peptide) [%],% Hemolysis (human erythrocytes; 1.56 μM peptide) [%],% Hemolysis (human erythrocytes; 3.12 μM peptide) [%],% Hemolysis (human erythrocytes; 6.25 μM peptide) [%],% Hemolysis (human erythrocytes; 12.5 μM peptide) [%],IC50 [4] [µM],IC50 [5] [µM],IC50 [6] [µM],IC50 [7] [µM],IC50 [8] [µM]
MWKWFHNVLSWWWLLADKRPARDYNRK-NH2 [Pep27anal2],caused a higher level of annexin V-FITC staining with a little increase of PI staining than etoposide,did not induce cytochrome c release,Apoptotic cells were most frequent in this group; also recorded: induced more apoptosis than 100 μM of etoposide,–,–,–,–,–,–,–,–,–,–,–,–
MWKEFHNVLSSGQLLADKRWARWYNRW-NH2 [Pep27anal4],–,–,–,0,0,0,0,0,0,0,51,29,37,46,50
"CC[C@H](C)[C@H](NC(=O)CN)C(=O)NCC(=O)N[C@@H](C)C(=O)N[C@H](C(=O)N[C@@H](CC(C)C)C(=O)N[C@@H](CCCCN)C(=O)N[C@H](C(=O)N[C@@H](CC(C)C)C(=O)N[C@H](C(=O)N[C@H](C(=O)NCC(=O)N[C@@H](CC(C)C)C(=O)N1CCC[C@H]1C(=O)N[C@@H](C)C(=O)N[C@@H](CC(C)C)C(=O)N[C@H](C(=O)N[C@@H](CO)C(=O)N[C@@H](Cc1c[nH]c2ccccc12)C(=O)N[C@H](C(=O)N[C@@H](CCCCN)C(=O)N[C@@H](CCCNC(=N)N)C(=O)N[C@@H](CCCCN)C(=O)N[C@@H](CCCNC(=N)N)C(=O)N[C@@H](CCC(N)=O)C(=O)N[C@@H](CCC(N)=O)C(N)=O)[C@@H](C)CC)[C@@H](C)CC)[C@@H](C)O)[C@@H](C)O)C(C)C)C(C)C [Mellitin, reference compound]",increased the distribution of PI staining without an increase of annexin V-FITC staining,–,–,–,–,–,–,–,–,–,–,–,–,–,–
"COc1cc([C@@H]2c3cc4c(cc3[C@@H](O[C@@H]3O[C@@H]5CO[C@@H](C)O[C@H]5[C@H](O)[C@H]3O)[C@H]3COC(=O)[C@H]23)OCO4)cc(OC)c1O [Etoposide, etoposide, reference compound]",–,–,Apoptotic cells were more frequent than in the control group,–,–,–,–,–,–,–,–,–,–,–,–
MWKWFHNVLSSGQLLADKWWAWWYNWW-NH2 [Pep27anal5],–,–,–,0,0,0,0,0,0,0,> 70,> 70,> 70,> 70,> 70
"MRKEFHNVLSSGQLLADKRPARDYNRK-NH2 [Pep27, reference compound]",–,–,–,0,0,0,0,0,0,0,> 70,> 70,> 70,> 70,> 70
